Values quoted from earlier work as cited in patent publication US20250268950A1, “PRENATAL SUPPLEMENT” (Arizona Board of Regents on Behalf of Arizona State …, priority 2021, published 2025).
Where two headings read alike, the source gives them in different places. Values belong to the compound of their own block, whether it stands above or below them.

How the values were obtained:
[1] = for blood niacin lower than healthy non-pregnant controls: 20 mg/day, 563 US women
[2] = system: pregnant women; settings: for decrease in anxiety symptoms / decrease in depression: RCT, 1 mg/day; for risk of anemia, RR: meta-analysis of 8 studies, supplementation
[3] = system: infants
[4] = Cochrane, ≥1 g/day, 13 studies, 15,730 women
[5] = meta-analysis of 27 trials, 28,492 women
[6] = meta-analysis of 7 studies, 5-10 mg, usually repeated, imminent very preterm birth
[7] = one or more maternal doses of 10 mg
[8] = meta-analysis of seven RCTs, women with gestational diabetes

Compound: O=C(O)CCCC[C@@H]1SC[C@@H]2NC(=O)N[C@@H]21 [Biotin]
biotin levels ([1]; 30 mcg/day supplemental): sufficient to slightly increase levels of biotin above that of healthy controls
treatment of biotin deficiency ([1]; 300 mcg/day for two weeks): sufficient to treat the deficiency

Compound: [Ca] [Calcium]
incidence of pregnancy-induced hypertension ([2]; 120 mg (18% in control group)): 8.9%
incidence of pregnancy-induced hypertension ([2]; 240 mg (18% in control group)): 7.5%
incidence of pregnancy-induced hypertension ([2]; 1000 mg (18% in control group)): 8%
incidence of pregnancy-induced hypertension ([2]; 2000 mg (18% in control group)): 4%
cases of HELLP ([2]; 1500-2000 mg/day, two trials, 12,901 women (vs. 6 un-supplemented)): 16
risk of preeclampsia, RR ([2]; Cochrane, low-dose <1 g/day, 10 trials, 2234 women): 0.38
maternal death or serious morbidity, RR ([2]; Cochrane, ≥1 g/day): 0.80
risk of high blood pressure, RR [2, 4]: 0.65
risk of preeclampsia, RR [2, 4]: 0.45
rate of proteinuric PIH ([2]; Hong Kong, 600 mg weeks 22-32, 1200 mg/day to birth (vs. 10.7% placebo)): 5.6%
rate of non-proteinuric PIH ([2]; Hong Kong, 600 mg weeks 22-32, 1200 mg/day to birth (vs. 24% placebo)): 15%
reducing risk of preeclampsia, PIH, and hypertension ([2]; Trinidad, 510 women, 1200 mg): much more effective than 600 mg of calcium plus aspirin
gestational hypertension, RR [2, 5]: 0.70
risk of preeclampsia, RR [2, 5]: 0.51
preterm birth, RR ([3]; Cochrane, ≥1 g/day): 0.76
risk of ASD, OR ([3]; retrospective study in China): 0.48

Compound: C[N+](C)(C)CCO [Choline]
safety ([2]; 900 mg/day of choline (as phosphatidylcholine)): safe
Tolerable Upper Limit for Pregnant Women (Table 12): 3500 mg/day

Compound: [Cu] [Copper]
decrease in anxiety symptoms ([2]; second trimester): 45%
decrease in depression ([2]; second trimester): 75%
decrease in anxiety symptoms ([2]; third trimester): 80%
decrease in depression ([2]; third trimester): 90%
copper levels ([1]; 2 mg as part of a multi-vitamin/mineral supplement, France): no difference in copper levels between treatment and placebo groups
Tolerable Upper Limit for Pregnant Women (Table 18): 10 mg

increase of RBC DHA ([1]; 300 mg/day (controls decreased 10%)): 7%
increase of RBC DHA ([1]; 600 g/day group (so in the source)): 21%
Compound: CC/C=C\C/C=C\C/C=C\C/C=C\C/C=C\C/C=C\CCC(=O)O [DHA, Docosahexaenoic acid]

Compound: Nc1nc2ncc(CNc3ccc(C(=O)N[C@@H](CCC(=O)O)C(=O)O)cc3)nc2c(=O)[nH]1 [Folate]
serum folate levels at postpartum ([1]; 355 mcg plus iron supplement, Scotland): sufficient to maintain median serum folate levels at postpartum that were equivalent to that of healthy non-pregnant women

Compound: [Fe] [Iron]
subjects in whom iron deficiency anemia was reduced ([2]; 60 mg 3×/day (180 mg total), 12 participants with IDA): 75%
reduction of iron-deficiency anemia at term ([2]; meta-analysis, 6 trials, 1088 women): 67%
reduction of iron deficiency at term ([2]; meta-analysis, 7 trials, 1256 women): 57%
reduction of maternal anemia at term ([2]; meta-analysis, 14 trials, 2199 women, mostly 30-200 mg/day): 70%
megaloblastic anemia ([2]; only iron (11% unsupplemented)): 6%

blood niacin lower than healthy non-pregnant controls ([1]; first trimester): 29%
blood niacin lower than healthy non-pregnant controls ([1]; second trimester): 35%
blood niacin lower than healthy non-pregnant controls ([1]; third trimester): 38%
Compound: O=C(O)c1cccnc1 [Niacin]

Compound: Cc1cc2nc3c(=O)[nH]c(=O)nc-3n(C[C@H](O)[C@H](O)[C@H](O)CO)c2cc1C [Riboflavin]
cases of severe preeclampsia ([2]; 15 mg/day, Venezuela): significant decrease in the number of cases of severe preeclampsia

Compound: [Se] [Selenium]
reduction of odds of preeclampsia or PIH ([2]; 60 i.g/day, 230 women in the UK): 65%
pregnancy-induced hypertension ([2]; 100 i.g during last 6-8 weeks, women at risk (vs. 23%)): 8%
gestational edema ([2]; 100 i.g during last 6-8 weeks, women at risk (vs. 33%)): 15%
postpartum depression ([2]; 100 i.g/day): treat postpartum depression
existing gestational edema cured ([2]; 100 i.g, 26 cases (1 out of 13 with placebo)): 88%
glucose, insulin, CRP, oxidative stress ([2]; 200 i.g/day for 6 weeks, 70 women with gestational diabetes): significant improvements in fasting glucose, serum insulin, C-reactive protein, and oxidative stress
rate of permanent hypothyroidism ([2]; 200 i.g/day, women at high risk (vs. 20%)): 12%
rate of postpartum thyroid deficiency ([2]; 200 i.g/day, women at high risk (vs. 49%)): 29%

thiamine levels lower than non-pregnant women ([1]; multi-vitamin containing 3 mg, 563 pregnant women): approximately 31%
Compound: Cc1ncc(C[n+]2csc(CCO)c2C)c(N)n1 [Thiamine]
effect on glucose tolerance and intra-uterine growth ([2]; supplementation in pregnant women): improves their glucose tolerance, and stimulates intra-uterine growth

vitamin A levels lower than healthy non-pregnant controls ([1]; 5000 IU/day (50% as beta carotene), first, second, third trimesters): 27%
Compound: CC1=C(/C=C/C(C)=C/C=C/C(C)=C/CO)C(C)(C)CCC1 [Vitamin A, retinol]
reduction of night blindness during pregnancy ([2]; Nepal, 7000 mcg/week): 67%
risk of anemia, RR [2]: 0.81
Tolerable Upper Limit for Pregnant Women (Table 12): 3 mg

Compound: [Zn] [Zinc]
reduction in chance of infant impetigo ([3]; 30 mg/day): 54%
preterm birth, RR ([3]; meta-analysis of 16 randomized, controlled trials, mostly 20-30 mg): 0.86

Compound: CC1=C(/C=C/C(C)=C/C=C/C(C)=C/C=C/C=C(C)/C=C/C=C(C)/C=C/C2=C(C)CCCC2(C)C)C(C)(C)CCC1 [beta-carotene]
benefit on night blindness compared with vitamin A ([2]; Nepal): about half as much benefit
risk of anemia, RR [2]: 0.81

average blood folate level ([1]; 1000 mcg/day, each trimester, 563 US women (10 ng/ml in controls)): 25 to 26 ng/mL
Compound: Nc1nc2ncc(CNc3ccc(C(=O)N[C@@H](CCC(=O)O)C(=O)O)cc3)nc2c(=O)[nH]1 [folic acid]
prevalence of gestational diabetes ([2]; women with PCOS, folic acid only 1.5 mg): 54%
risk of ASD in the child, RR ([3]; meta-analysis of 6 prospective studies, maternal supplementation): 0.64
NTDs, OR ([3]; meta-analysis, multi-vitamin supplement containing folic acid): 0.67

Compound: O=S(=O)([O-])[O-].[Mg+2] [magnesium sulfate, reference compound]
maternal complications ([2]; 4-6 g intravenously): no major complications
reduction of risk of cerebral palsy ([3]; 4-6 g intravenously, mothers at high risk of preterm birth, meta-analysis of five studies): approximately 32%

infant plasma vitamin K as % of formula-fed infants ([1]; lactating mothers 5 mg/day, infants 1 mg intramuscularly at birth): 50%
Compound: CC1=C(C/C=C(\C)CCC[C@H](C)CCC[C@H](C)CCCC(C)C)C(=O)c2ccccc2C1=O [phylloquinone]

Compound: C[Se]CC[C@H](N)C(=O)O [selenome-thionine, selenomethionine]
preeclampsia or preterm birth vs placebo ([2]; 100 i.g/day, randomized trial of 169 women): no significant differences were seen for either preeclampsia or preterm birth

Compound: CC(=O)[O-].CC(=O)[O-].[Zn+2] [zinc acetate]
benefit of zinc form ([3]; two studies): not beneficial

Compound: CC(O)C(=O)[O-].CC(O)C(=O)[O-].[Zn+2] (stereo not shown) [zinc lactate]
low birth weight, preterm birth, intrauterine growth retardation ([3]; 30 mg/day): great improvements in the incidence of low birth weight, preterm birth, and intrauterine growth retardation
benefit ([3]; doses of 5 and 10 mg): no benefit
serum zinc ([1]; 30 mg): enough to slightly increase zinc levels

Compound: O=S(=O)([O-])[O-].[Zn+2] [zinc sulfate]
infant birth weight and head circumference ([3]; 25 mg/day, women with relatively low plasma zinc): greater infant birth weights and head circumferences
decrease of serum zinc, week 17 to week 31-36 ([1]; 20 mg, 138 Hispanic teenagers (14% non-supplemented)): 8%
decrease of plasma zinc from beginning to end of pregnancy ([1]; 25 mg/day, U.S. women with low initial plasma zinc (11% un-supplemented)): 7%
zinc levels ([1]; averaging 11 mg/day, U.S.): little effect on plasma levels but did increase hair and possibly saliva levels

levels lower at end of pregnancy vs healthy non-pregnant controls ([1]; 12 mcg/day, US): 38%
decrease in serum B12 by third trimester vs first ([1]; total consumption of 2× the RDA): 30%
Compound: Cobalamin [Vitamin B12]
maternal and infant B12 levels ([1]; 50 mcg/day during pregnancy and early lactation, India): significant increases in maternal B12 levels in blood and breastmilk, and infant levels of B12
vitamin B12 levels during pregnancy ([1]; approximately 3× the RDA (diet 6 mcg + supplements 2.6 mcg), 26 women): enough to stabilize vitamin B12 levels during pregnancy

risk of childhood cancer ([3]; meta-analysis of 6 studies, infantile supplementation): no risk of childhood cancer
vitamin K level in the infant vs un-supplemented controls, times higher [1, 7]: 2
vitamin K level in the mother vs un-supplemented controls, times higher [1, 7]: 100
Compound: Vitamin K
brain bleeding, RR (non-significant) [3, 6]: 0.76
severe brain bleeding, RR [3, 6]: 0.58
vitamin K level ([1]; pregnant women with previous bariatric surgery, 10 mg per week): normal or above-normal level of vitamin K

bound pantothenic acid as % of levels in controls ([1]; 60 mg from 4.5 months gestation, at 7.5 months): 59%
free pantothenic acid vs controls, fold higher ([1]; 60 mg from 4.5 months gestation, at 7.5 months and at term): 2
bound pantothenic acid as % of levels in controls ([1]; 60 mg from 4.5 months gestation, at term): 104%
Compound: calcium pantothenate
blood levels of pantothenic acid ([1]; 10 mg/day): slightly higher blood levels of pantothenic acid compared to non-pregnant controls

Compound: magnesium gluconate
rate of pregnancy-induced hypertension ([2]; 184 mg/day): substantially reduced the rate of pregnancy-induced hypertension

Compound: omega-3 fatty acids
risk of preeclampsia, RR ([2]; meta-analysis of 14 supplementation studies): 0.82
preeclampsia, RR (possibly reduced) ([2]; meta-analysis of 70 RCTs): 0.84
reduction of depression, SMD ([2]; meta-analysis of eight studies, 638 women with perinatal depression, 1-6 g/day): 0.65
prevention of perinatal depression ([2]; meta-analysis of prophylactic supplementation studies): did not demonstrate a significant benefit
HOMA-IR, std. MD [2, 8]: −0.52
fasting plasma glucose, std. MD [2, 8]: −0.56
high-sensitivity CRP, std. MD [2, 8]: −1.14
neonatal care admissions, RR (possibly fewer) ([3]; meta-analysis of 70 RCTs): 0.92
perinatal death, RR (possibly reduced) ([3]; meta-analysis of 70 RCTs): 0.75
macrosomia, RR (possible) [3, 8]: 0.48
newborns' hyperbilirubinemia, RR (possible) [3, 8]: 0.46
prolonged gestation (>42 weeks), RR ([3]; meta-analysis, 6 RCTs, 5141 participants): 1.61
early preterm birth (<34 weeks), RR ([3]; meta-analysis, 9 RCTs, 5204 participants): 0.58
low birth weight, RR ([3]; meta-analysis, 15 trials, 8449 participants): 0.90
preterm birth (<37 weeks), RR ([3]; meta-analysis, 26 RCTs, 10,304 participants): 0.89
mean increase in length of gestation ([3]; meta-analysis, 41 trials, 12,517 participants): 1.67 days
